Data taken from patent US20240344145A1, “PHARMACOGENOMICS SCORE TO MAKE DECISIONS ON THERAPY AUGMENTATION IN AML” (University of Florida Research Foundation, Incorporated, priority 2021, published 2024).

Tested on: ara-C metabolic pathway genes
Assay: Association of ara-C pathway SNP genotypes with MRD1, EFS and OS in AML02 (logistic regression and Cox models; also within LDAC and HDAC arms)
Parameters: species or system human
Details: within arm of AML02
Source text: Genomic DNA from patients enrolled in the multi-site St. Jude AML02 trial was genotyped for 155 SNPs in 16 genes of relevance to ara-C pharmacology using sequenom iPlex platform that uses MALDI-TOF based chemistry at University of Minnesota, Biomedical Genomics Center. SNPs were selected based on previously reported studies. For SNPs lacking literature on genetic variation, SNPs were selected to capture LD blocks (European and African ancestry) on a gene. Of 155 SNPs, 1 SNP was excluded due to low call rate (<90%), 47 SNPs were excluded due to minimum allele frequency of less than 5%, 11 SNPs were excluded due to high LD (r^2>0.9) with other SNPs; two SNPs were excluded because of deviation from Hardy-Weinberg equilibrium. Genotype for the COG-AAML0531 cohort for the selected SNPs was obtained using sequenom platform or TaqMan genotyping assays, and for a few SNPs was extracted from the data available on Illumina 2.5 Omni array. Genotype calls from multiple platforms were confirmed across multiple samples randomly collected from the cohort.
SNP genotype groups in three different modes of inheritance (additive, dominant, and recessive) were tested for association with MRD1 using logistic regression models. Odds ratio (OR) and 95% confidence interval (CI) were calculated for each test. SNPs with association P-value<0.05 were considered significant. Cox-proportional hazard models were used to evaluate association of genotype groups with EFS or OS. Hazard ratio (HR) and 95% CI were calculated for each test. p-value<0.05 was considered statistically significant. Given initial risk group assignments are well-established prognostic factors associated with outcome, outcome association analysis of SNPs with and without adjusting for risk group was also performed to identify SNPs that are associated with outcome independent of risk group.
SNPs with p<0.15 in risk-adjusted univariate evaluation with clinical endpoints (MRD1, EFS, and OS) were tested for all possible combinations with a maximum of three SNPs per model in multivariable logistic regression models for association with MRD1 and Cox-proportional hazard models for association with EFS and OS. Analysis for up to 3 SNP combinations was restricted due to computational challenges as increasing the maximum number of SNPs per model drastically increases the number of models as 1000 permutations were run for each model. Models were ordered according to their Bayesian Information Criterion (BIC) and weight in favor of each model. One thousand permutation tests were performed for each model to determine statistical significance. The six unique SNPs from the most significant models for EFS and MRD1 were included in the development of the ACS10 score as described in the results section.
The multicenter AML02 clinical trial randomly assigned subjects to receive low dose ara-C (LDAC: 100 mg/m^2; n=91 patients) or high dose ara-C(HDAC: 3 g/m^2; n=75 patients) in combination with daunorubicin and etoposide as the first course of chemotherapy as described above in patient cohort section. Thus, the association of SNPs with outcome within each arm separately was also explored (Table 5).

[1] = rs4742 (DCTD, WT T, VAR C), MOI R
[2] = rs5841 (NME4, WT C, VAR T), MOI D
[3] = rs324148 (SLC29A1, WT C, VAR T), MOI A
[4] = rs407983 (NME4, WT G, VAR C), MOI A
[5] = rs507964 (SLC29A1, WT C, VAR A), MOI R
[6] = rs580032 (CDA, WT T, VAR G), MOI D
[7] = rs602950 (CDA, WT T, VAR C), MOI A
[8] = rs747199 (SLC29A1, WT C, VAR G), MOI D
[9] = rs818196 (CDA, WT G, VAR C), MOI D
[10] = rs1048977 (CDA, WT C, VAR T), MOI D
[11] = rs1138729 (RRM2, WT A, VAR G), MOI D
[12] = rs2072671 (CDA, WT A, VAR C), MOI A
[13] = rs2396243 (SLC29A1, WT G, VAR A), MOI D
[14] = rs3088062 (CMPK1, WT T, VAR C), MOI A
[15] = rs3743162 (SLC28A1, WT C, VAR T), MOI D
[16] = rs3829540 (NME3, WT G, VAR A), MOI D
[17] = rs3925058 (CMPK1, WT T, VAR C), MOI D
[18] = rs4247411 (SLC28A1, WT C, VAR T), MOI D
[19] = rs4271567 (SLC28A1, WT T, VAR A), MOI R
[20] = rs4643786 (DCK, WT T, VAR C), MOI R

## Nc1ccn([C@@H]2O[C@H](CO)[C@@H](O)[C@@H]2O)c(=O)n1 [HDAC, cytarabine]
[1]
  EFS HR (95% CI): 1.53 (0.98-2.4)
  MRD1 OR (95% CI): 1.08 (0.49-2.38)
  OS HR (95% CI): 1.49 (0.91-2.46)
[2]
  EFS HR (95% CI): 0.86 (0.6-1.23)
  MRD1 OR (95% CI): 0.48 (0.28-0.81)
  OS HR (95% CI): 1.15 (0.74-1.81)
[3]
  EFS HR (95% CI): 0.88 (0.52-1.5)
  MRD1 OR (95% CI): 1.08 (0.55-2.1)
  OS HR (95% CI): 0.75 (0.39-1.46)
[4]
  EFS HR (95% CI): 1.1 (0.7-1.72)
  MRD1 OR (95% CI): 1.43 (0.76-2.67)
  OS HR (95% CI): 1.05 (0.62-1.8)
[5]
  EFS HR (95% CI): 1.71 (1.12-2.62)
  MRD1 OR (95% CI): 1.01 (0.51-2.01)
  OS HR (95% CI): 1.37 (0.8-2.36)
[6]
  EFS HR (95% CI): 0.45 (0.22-0.92)
  MRD1 OR (95% CI): 0.91 (0.49-1.66)
  OS HR (95% CI): 0.58 (0.28-1.19)
[7]
  EFS HR (95% CI): 1.25 (0.74-2.09)
  MRD1 OR (95% CI): 0.69 (0.32-1.48)
  OS HR (95% CI): 0.86 (0.44-1.69)
[8]
  EFS HR (95% CI): 0.97 (0.66-1.42)
  MRD1 OR (95% CI): 1.37 (0.82-2.29)
  OS HR (95% CI): 1.1 (0.72-1.71)
[9]
  EFS HR (95% CI): 0.66 (0.45-0.98)
  MRD1 OR (95% CI): 0.9 (0.56-1.47)
  OS HR (95% CI): 0.73 (0.47-1.14)
[10]
  EFS HR (95% CI): 0.9 (0.63-1.28)
  MRD1 OR (95% CI): 1.09 (0.67-1.78)
  OS HR (95% CI): 1.44 (0.7-2.98)
[11]
  EFS HR (95% CI): 1.14 (0.78-1.66)
  MRD1 OR (95% CI): 1.04 (0.61-1.77)
  OS HR (95% CI): 1.42 (0.93-2.17)
[12]
  EFS HR (95% CI): 1.18 (0.7-1.99)
  MRD1 OR (95% CI): 0.73 (0.34-1.56)
  OS HR (95% CI): 0.89 (0.46-1.75)
[13]
  EFS HR (95% CI): 0.94 (0.63-1.39)
  MRD1 OR (95% CI): 1.39 (0.84-2.31)
  OS HR (95% CI): 0.87 (0.54-1.4)
[14]
  EFS HR (95% CI): 1.41 (0.8-2.51)
  MRD1 OR (95% CI): 1.16 (0.48-2.81)
  OS HR (95% CI): 1.48 (0.75-2.94)
[15]
  EFS HR (95% CI): 1.65 (1.15-2.36)
  MRD1 OR (95% CI): 1.89 (1.15-3.11)
  OS HR (95% CI): 1.43 (0.94-2.18)
[16]
  EFS HR (95% CI): 0.71 (0.47-1.09)
  MRD1 OR (95% CI): 0.82 (0.49-1.37)
  OS HR (95% CI): 0.51 (0.27-0.93)
[17]
  EFS HR (95% CI): 0.81 (0.56-1.18)
  MRD1 OR (95% CI): 1.41 (0.79-2.53)
  OS HR (95% CI): 0.76 (0.49-1.18)
[18]
  EFS HR (95% CI): 1.69 (1.08-2.64)
  MRD1 OR (95% CI): 1.91 (1.08-3.37)
  OS HR (95% CI): 1.72 (1-2.95)
[19]
  EFS HR (95% CI): 0.52 (0.29-0.95)
  MRD1 OR (95% CI): 0.66 (0.35-1.23)
  OS HR (95% CI): 0.54 (0.26-1.11)
[20]
  EFS HR (95% CI): 1.15 (0.63-2.09)
  MRD1 OR (95% CI): 0.87 (0.36-2.12)
  OS HR (95% CI): 1.38 (0.75-2.56)
